ChEMBL document CHEMBL1128724, “Unsaturated acyclic analogues of 2'-deoxyadenosine and thymidine containing fluorine: synthesis and biological activity” (J Med Chem, 1995)

Legend:
L1210 = experiment: Growth inhibition of murine leukemia L1210 cells.; format: functional, cell-based; details: Mus musculus
ATH-8 cell line [1] = experiment: Inhibitory activity against HIV-1 in ATH8 cells; format: functional, cell-based; details: Homo sapiens
ATH-8 cell line [2] = experiment: Inhibitory activity against HIV-1 in ATH8 cells; IA means Inactive; format: functional, cell-based, Homo sapiens

| IC50 (L1210) [µM] | SMILES | also measured |
| --- | --- | --- |
| 89 | Nc1ncnc2c1ncn2C(F)C#CCO (centres undefined) |  |
| 60 | Cc1cn(C/C=C(/F)CO)c(=O)[nH]c1=O |  |
|  | Nc1ncnc2c1ncn2C/C=C(/F)CO | IC50 (ATH-8 cell line [1]): 100 µM |
|  | Nc1ncnc2c1ncn2C/C=C(\F)CO | IC50 (ATH-8 cell line [2]): Not Active |
